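Grown in 96-well plates, cells were treated for 48 hours with each compound at five concentrations. Insufficient inhibition: endpoint recorded as highest concentration tested. The concentration for 50% growth inhibition is given as GI50. TGI: concentration producing complete growth inhibition.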
What was measured:
Test in all cases: NCI anticancer screen, dose series, 48 h
SF-539 CNS = tested on: SF-539 CNS
TK-10 renal = tested on: TK-10 renal
UACC-257 melanoma = tested on: UACC-257 melanoma
T-47D breast = tested on: T-47D breast
CAKI-1 renal = tested on: CAKI-1 renal
HT29 colon = tested on: HT29 colon
SNB-19 CNS = tested on: SNB-19 CNS
KM12 colon = tested on: KM12 colon
HOP-92 NSCLC = tested on: HOP-92 NSCLC
A549 NSCLC = tested on: A549 NSCLC
A498 renal = tested on: A498 renal
HOP-62 NSCLC = tested on: HOP-62 NSCLC
OVCAR-4 ovarian = tested on: OVCAR-4 ovarian
NCI/ADR-RES ovarian = tested on: NCI/ADR-RES ovarian
RXF 393 renal = tested on: RXF 393 renal
LOX IMVI melanoma = tested on: LOX IMVI melanoma
U251 CNS = tested on: U251 CNS
SW-620 colon = tested on: SW-620 colon
HS 578T breast = tested on: HS 578T breast
SK-MEL-2 melanoma = tested on: SK-MEL-2 melanoma
NCI-H23 lung = tested on: NCI-H23 lung
CCRF-CEM leukemia = tested on: CCRF-CEM leukemia
SN12C renal = tested on: SN12C renal
SK-MEL-5 melanoma = tested on: SK-MEL-5 melanoma
UO-31 renal = tested on: UO-31 renal
IGROV1 ovarian = tested on: IGROV1 ovarian
BT-549 breast = tested on: BT-549 breast
SF-268 CNS = tested on: SF-268 CNS
NCI-H460 lung = tested on: NCI-H460 lung
DU-145 prostate = tested on: DU-145 prostate
MDA-MB-435 = tested on: MDA-MB-435
786-0 renal = tested on: 786-0 renal
MDA-MB-231 breast = tested on: MDA-MB-231 breast
UACC-62 melanoma = tested on: UACC-62 melanoma
MALME-3M melanoma = tested on: MALME-3M melanoma
OVCAR-3 ovarian = tested on: OVCAR-3 ovarian
SF-295 CNS = tested on: SF-295 CNS
RPMI-8226 leukemia = tested on: RPMI-8226 leukemia
NCI-H226 lung = tested on: NCI-H226 lung
HCT-116 colon = tested on: HCT-116 colon
SK-OV-3 ovarian = tested on: SK-OV-3 ovarian
HCC-2998 colon = tested on: HCC-2998 colon
PC-3 prostate = tested on: PC-3 prostate
SR leukemia = tested on: SR leukemia
K-562 leukemia = tested on: K-562 leukemia
MOLT-4 leukemia = tested on: MOLT-4 leukemia
NCI-H522 lung = tested on: NCI-H522 lung
OVCAR-5 ovarian = tested on: OVCAR-5 ovarian
MCF7 breast = tested on: MCF7 breast
SNB-75 CNS = tested on: SNB-75 CNS
HCT-15 colon = tested on: HCT-15 colon
HL-60(TB) leukemia = tested on: HL-60(TB) leukemia
SK-MEL-28 melanoma = tested on: SK-MEL-28 melanoma
COLO 205 colon = tested on: COLO 205 colon
ACHN renal = tested on: ACHN renal
OVCAR-8 ovarian = tested on: OVCAR-8 ovarian
M14 melanoma = tested on: M14 melanoma
EKVX NSCLC = tested on: EKVX NSCLC

SMILES: O=c1c2c([nH]c3ccccc13)CCCC2
- GI50 (SF-539 CNS): > 100 µM
- TGI (SF-539 CNS): > 100 µM
- GI50 (TK-10 renal): > 100 µM
- TGI (TK-10 renal): > 100 µM
- GI50 (UACC-257 melanoma): > 100 µM
- TGI (UACC-257 melanoma): > 100 µM
- GI50 (T-47D breast): > 100 µM
- TGI (T-47D breast): > 100 µM
- GI50 (CAKI-1 renal): > 100 µM
- TGI (CAKI-1 renal): > 100 µM
- GI50 (HT29 colon): > 100 µM
- TGI (HT29 colon): > 100 µM
- GI50 (SNB-19 CNS): > 100 µM
- TGI (SNB-19 CNS): > 100 µM
- GI50 (KM12 colon): > 100 µM
- TGI (KM12 colon): > 100 µM
- GI50 (HOP-92 NSCLC): 78.4 µM
- TGI (HOP-92 NSCLC): > 100 µM
- GI50 (A549 NSCLC): > 100 µM
- TGI (A549 NSCLC): > 100 µM
- GI50 (A498 renal): 1.74 µM
- TGI (A498 renal): 55.8 µM
- GI50 (HOP-62 NSCLC): > 100 µM
- TGI (HOP-62 NSCLC): > 100 µM
- GI50 (OVCAR-4 ovarian): 37 µM
- TGI (OVCAR-4 ovarian): > 100 µM
- GI50 (NCI/ADR-RES ovarian): > 100 µM
- TGI (NCI/ADR-RES ovarian): > 100 µM
- GI50 (RXF 393 renal): > 100 µM
- TGI (RXF 393 renal): > 100 µM
- GI50 (LOX IMVI melanoma): > 100 µM
- TGI (LOX IMVI melanoma): > 100 µM
- GI50 (U251 CNS): > 100 µM
- TGI (U251 CNS): > 100 µM
- GI50 (SW-620 colon): > 100 µM
- TGI (SW-620 colon): > 100 µM
- GI50 (HS 578T breast): > 100 µM
- TGI (HS 578T breast): > 100 µM
- GI50 (SK-MEL-2 melanoma): 60.4 µM
- TGI (SK-MEL-2 melanoma): > 100 µM
- GI50 (NCI-H23 lung): > 100 µM
- TGI (NCI-H23 lung): > 100 µM
- GI50 (CCRF-CEM leukemia): > 100 µM
- TGI (CCRF-CEM leukemia): > 100 µM
- GI50 (SN12C renal): > 100 µM
- TGI (SN12C renal): > 100 µM
- GI50 (SK-MEL-5 melanoma): 45.3 µM
- TGI (SK-MEL-5 melanoma): > 100 µM
- GI50 (UO-31 renal): 49.7 µM
- TGI (UO-31 renal): > 100 µM
- GI50 (IGROV1 ovarian): > 100 µM
- TGI (IGROV1 ovarian): > 100 µM
- GI50 (BT-549 breast): > 100 µM
- TGI (BT-549 breast): > 100 µM
- GI50 (SF-268 CNS): > 100 µM
- TGI (SF-268 CNS): > 100 µM
- GI50 (NCI-H460 lung): > 100 µM
- TGI (NCI-H460 lung): > 100 µM
- GI50 (DU-145 prostate): > 100 µM
- TGI (DU-145 prostate): > 100 µM
- GI50 (MDA-MB-435): > 100 µM
- TGI (MDA-MB-435): > 100 µM
- GI50 (786-0 renal): > 100 µM
- TGI (786-0 renal): > 100 µM
- GI50 (MDA-MB-231 breast): > 100 µM
- TGI (MDA-MB-231 breast): > 100 µM
- GI50 (UACC-62 melanoma): > 100 µM
- TGI (UACC-62 melanoma): > 100 µM
- GI50 (MALME-3M melanoma): > 100 µM
- TGI (MALME-3M melanoma): > 100 µM
- GI50 (OVCAR-3 ovarian): > 100 µM
- TGI (OVCAR-3 ovarian): > 100 µM
- GI50 (SF-295 CNS): > 100 µM
- TGI (SF-295 CNS): > 100 µM
- GI50 (RPMI-8226 leukemia): 81.5 µM
- TGI (RPMI-8226 leukemia): > 100 µM
- GI50 (NCI-H226 lung): > 100 µM
- TGI (NCI-H226 lung): > 100 µM
- GI50 (HCT-116 colon): > 100 µM
- TGI (HCT-116 colon): > 100 µM
- GI50 (SK-OV-3 ovarian): > 100 µM
- TGI (SK-OV-3 ovarian): > 100 µM
- GI50 (HCC-2998 colon): > 100 µM
- TGI (HCC-2998 colon): > 100 µM
- GI50 (PC-3 prostate): > 100 µM
- TGI (PC-3 prostate): > 100 µM
- GI50 (SR leukemia): > 100 µM
- TGI (SR leukemia): > 100 µM
- GI50 (K-562 leukemia): > 100 µM
- TGI (K-562 leukemia): > 100 µM
- GI50 (MOLT-4 leukemia): > 100 µM
- TGI (MOLT-4 leukemia): > 100 µM
- GI50 (NCI-H522 lung): > 100 µM
- TGI (NCI-H522 lung): > 100 µM
- GI50 (OVCAR-5 ovarian): > 100 µM
- TGI (OVCAR-5 ovarian): > 100 µM
- GI50 (MCF7 breast): > 100 µM
- TGI (MCF7 breast): > 100 µM
- GI50 (SNB-75 CNS): > 100 µM
- TGI (SNB-75 CNS): > 100 µM
- GI50 (HCT-15 colon): > 100 µM
- TGI (HCT-15 colon): > 100 µM
- GI50 (HL-60(TB) leukemia): > 100 µM
- TGI (HL-60(TB) leukemia): > 100 µM
- GI50 (SK-MEL-28 melanoma): > 100 µM
- TGI (SK-MEL-28 melanoma): > 100 µM
- GI50 (COLO 205 colon): > 100 µM
- TGI (COLO 205 colon): > 100 µM
- GI50 (ACHN renal): > 100 µM
- TGI (ACHN renal): > 100 µM
- GI50 (OVCAR-8 ovarian): > 100 µM
- TGI (OVCAR-8 ovarian): > 100 µM

SMILES: COc1cc(Nc2nc3ccccc3n3cccc23)cc(OC)c1OC
- TGI (SF-539 CNS): > 100 µM
- TGI (M14 melanoma): > 100 µM
- TGI (TK-10 renal): > 100 µM
- TGI (UACC-257 melanoma): > 100 µM
- TGI (T-47D breast): 0.821 µM
- TGI (CAKI-1 renal): > 100 µM
- TGI (HT29 colon): > 100 µM
- TGI (SNB-19 CNS): > 100 µM
- TGI (KM12 colon): > 100 µM
- TGI (HOP-92 NSCLC): > 100 µM
- TGI (A549 NSCLC): > 100 µM
- TGI (A498 renal): > 100 µM
- TGI (HOP-62 NSCLC): 72.9 µM
- TGI (NCI/ADR-RES ovarian): > 100 µM
- TGI (RXF 393 renal): 99.6 µM
- TGI (LOX IMVI melanoma): > 100 µM
- TGI (U251 CNS): > 100 µM
- TGI (SW-620 colon): > 100 µM
- TGI (HS 578T breast): > 100 µM
- TGI (SK-MEL-2 melanoma): > 100 µM
- TGI (NCI-H23 lung): > 100 µM
- TGI (CCRF-CEM leukemia): > 100 µM
- TGI (SK-MEL-5 melanoma): > 100 µM
- TGI (UO-31 renal): > 100 µM
- TGI (IGROV1 ovarian): > 100 µM
- TGI (BT-549 breast): > 100 µM
- TGI (SF-268 CNS): > 100 µM
- TGI (NCI-H460 lung): > 100 µM
- TGI (DU-145 prostate): > 100 µM
- TGI (MDA-MB-435): > 100 µM
- TGI (786-0 renal): > 100 µM
- TGI (MDA-MB-231 breast): > 100 µM
- TGI (UACC-62 melanoma): > 100 µM
- TGI (MALME-3M melanoma): > 100 µM
- TGI (OVCAR-3 ovarian): > 100 µM
- TGI (SF-295 CNS): > 100 µM
- TGI (RPMI-8226 leukemia): > 100 µM
- TGI (EKVX NSCLC): > 100 µM
- TGI (HCT-116 colon): > 100 µM
- TGI (SK-OV-3 ovarian): > 100 µM
- TGI (HCC-2998 colon): > 100 µM
- TGI (PC-3 prostate): > 100 µM
- TGI (SR leukemia): > 100 µM
- TGI (K-562 leukemia): > 100 µM
- TGI (MOLT-4 leukemia): > 100 µM
- TGI (NCI-H522 lung): > 100 µM
- TGI (OVCAR-5 ovarian): > 100 µM
- TGI (MCF7 breast): > 100 µM
- TGI (HCT-15 colon): > 100 µM
- TGI (HL-60(TB) leukemia): > 100 µM
- TGI (SK-MEL-28 melanoma): > 100 µM
- TGI (COLO 205 colon): > 100 µM
- TGI (ACHN renal): > 100 µM
- TGI (OVCAR-8 ovarian): > 100 µM
